Test results from paper PMC8537386, “The Specificity and Broad Multitarget Properties of Ligands for the Free Fatty Acid Receptors FFA3/GPR41 and FFA2/GPR43 and the Related Hydroxycarboxylic Acid Receptor HCA2/GPR109A” (Pharmaceuticals, 2021).
Read-outs that look alike come from different tables or passages of the source.

Experiments:
FFA3/GPR41 = target: T1, FFA3/GPR41 (Homo sapiens, UniProt O14843); assay: forskolin-stimulated cAMP accumulation assay, Flp-In-293 cells stably expressing FFA3/GPR41; assay type: cell-based; conditions: for inhibition at 50 µM / Emax: Flp-In-293; for inhibition at 50 µM: 50 µM compound, NA = not active up to 50 µM; for Emax / EC50: mean ± SD; for Emax: read-out: FFA3/GPR41 Emax, maximal inhibition of forskolin-stimulated cAMP (converted); for EC50: inhibition of forskolin-stimulated cAMP, absence of propionate, read-out: FFA3/GPR41 EC50; for activity towards FFA3/GPR41 (in words): cAMP assay
T1 construct: host or cells: Flp-In-293
T1 sequence (O14843 1-346): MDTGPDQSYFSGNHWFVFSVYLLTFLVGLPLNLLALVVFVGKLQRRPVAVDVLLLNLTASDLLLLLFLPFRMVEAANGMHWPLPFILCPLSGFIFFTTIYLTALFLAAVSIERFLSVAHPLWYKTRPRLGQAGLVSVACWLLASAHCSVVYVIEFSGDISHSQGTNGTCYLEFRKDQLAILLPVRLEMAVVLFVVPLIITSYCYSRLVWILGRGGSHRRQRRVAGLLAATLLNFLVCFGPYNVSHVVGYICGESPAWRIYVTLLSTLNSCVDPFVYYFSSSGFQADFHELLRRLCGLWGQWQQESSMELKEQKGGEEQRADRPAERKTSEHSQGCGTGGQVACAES
Protocol: (§1) All of our synthesized compounds were evaluated in forskolin-stimulated cAMP accumulation assay using Flp-In-293 cells stably expressing human FFA2/GPR43, FFA3/GPR41 or HCA2/GPR109A receptors (Table 1, Table 2 and Table 3; Figure 2).
(§2) Flp-In-293 cells (Invitrogen) were used for the generation of stable FFA3/GPR41 and FFA2/GRP43 cell lines using Flp-In System (Invitrogen). Flp-In-293 cells were cultured in Dulbecco’s modified Eagle medium (DMEM) supplemented with 10% fetal bovine serum (FBS), penicillin (100 U/mL), streptomycin (100 µg/mL), and zeocin (100 µg/mL). The cells were co-transfected with pOG44 (Invitrogen) and pcDNA5/FRT-FFA3 or pcDNA5/FRT-FFA2 using TurboFect (Thermo Fisher Scientific), and stable cell lines were generated according to the manufacturer’s protocol (Invitrogen). After transfection, the cells were cultured under selection pressure due to the presence of hygromycin B (100 µg/mL) in DMEM supplemented with 10% FBS, penicillin, and streptomycin.
(§3) For cAMP assay, the cells were distributed into a 384-well white microplate at a density of 12,000 cells per well and stimulated with the indicated compounds in the presence of 3 μM forskolin for 30 min. […] The cells and the compounds were diluted in 1X phosphate-buffered saline (PBS) supplemented with 0.5 mM of 3-isobutyl-1-methylxanthine. The intracellular cAMP levels were measured using a Lance cAMP kit according to the manufacturer’s instructions. The plates were read on a PerkinElmer Victor 3V multilabel plate reader. The cAMP was quantitated in each sample by comparison to a calibration curve of known cAMP quantities provided in the kit.

FFA2/GPR43 = target: T2, FFA2/GPR43 (Homo sapiens, UniProt O15552); assay: forskolin-stimulated cAMP accumulation assay, Flp-In-293 cells stably expressing FFA2/GPR43; assay type: cell-based; conditions: for inhibition at 50 µM / Emax: Flp-In-293; for inhibition at 50 µM: 50 µM compound, NA = not active up to 50 µM; for activity towards FFA2/GPR43 (in words): cAMP assay; for Emax / EC50: mean ± SD; for Emax: read-out: FFA2/GPR43 Emax, maximal inhibition of forskolin-stimulated cAMP (converted); for EC50: inhibition of forskolin-stimulated cAMP
T2 construct: host or cells: Flp-In-293
T2 sequence (O15552 1-330): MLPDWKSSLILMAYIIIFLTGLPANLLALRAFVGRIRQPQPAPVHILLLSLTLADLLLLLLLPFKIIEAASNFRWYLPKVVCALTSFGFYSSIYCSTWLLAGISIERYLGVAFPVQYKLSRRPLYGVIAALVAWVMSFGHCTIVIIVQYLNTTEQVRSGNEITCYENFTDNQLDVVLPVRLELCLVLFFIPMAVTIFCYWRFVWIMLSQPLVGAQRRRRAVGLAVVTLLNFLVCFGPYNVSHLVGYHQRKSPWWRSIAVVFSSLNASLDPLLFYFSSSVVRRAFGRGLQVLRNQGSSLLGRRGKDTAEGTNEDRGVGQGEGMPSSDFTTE
Protocol: as §1, §2, §3

HCA2/GPR109A = target: T3, HCA2/GPR109A (Homo sapiens, UniProt Q8TDS4); assay: forskolin-stimulated cAMP accumulation assay, Flp-In-293 cells stably expressing HCA2/GPR109A; assay type: cell-based; conditions: for activity towards HCA2/GPR109A (in words): cAMP assay; for inhibition at 50 µM: 50 µM compound, NA = not active up to 50 µM
T3 construct: expressed in transfected cells; host or cells: Flp-In-293
Protocol: as §1
Flp-In-293 cells stably expressing human HCA2/GPR109A receptor (laboratory collection) were grown in DMEM medium supplemented with 10% FBS, penicillin, streptomycin, and hygromycin B (100 µg/mL). All cells were cultured at 37 °C in a humidified incubator containing 5% CO2.
as §3

[1] = cyclic voltammetry, electrooxidation potential; assay type: physicochemical; conditions: vs. Ag/Ag+; acetonitrile, glassy carbon electrode
Protocol: Cyclic voltammetry experiments were carried out using a PARSTAT 2273 electrochemical system. A stationary glassy carbon disk electrode (d = 0.8 mm) served as the working electrode, while the counter electrode was a Pt wire. The oxidation potentials were measured relative to an Ag/Ag^+ reference electrode. Acetonitrile was dried over P2O5 and distilled; the distillate was stored over CaH2 and redistilled immediately prior to use. Recrystallized tetrabutylammonium tetrafluoroborate (TBATFB) was used as a supporting electrolyte at 0.1 M concentration.

[2] = HCA2, mean ± SD, read-out: HCA2/GPR109A Emax, maximal inhibition of forskolin-stimulated cAMP (converted)
[3] = inhibition of forskolin-stimulated cAMP, mean ± SD, read-out: HCA2/GPR109A EC50

T3 sequence (Q8TDS4 whole entry): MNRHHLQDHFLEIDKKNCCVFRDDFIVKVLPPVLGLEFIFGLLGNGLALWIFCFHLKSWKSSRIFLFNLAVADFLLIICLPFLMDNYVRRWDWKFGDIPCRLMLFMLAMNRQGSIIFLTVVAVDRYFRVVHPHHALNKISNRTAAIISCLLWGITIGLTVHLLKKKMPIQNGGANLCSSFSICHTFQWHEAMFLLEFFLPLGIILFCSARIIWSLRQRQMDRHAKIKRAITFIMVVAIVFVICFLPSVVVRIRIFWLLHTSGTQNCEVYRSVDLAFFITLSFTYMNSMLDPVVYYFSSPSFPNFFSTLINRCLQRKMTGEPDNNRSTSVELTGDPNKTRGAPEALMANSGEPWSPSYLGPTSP

SMILES	inhibition at 50 µM (FFA3/GPR41)	Emax (FFA3/GPR41)	EC50 (FFA3/GPR41)	inhibition at 50 µM (FFA2/GPR43)	Emax (HCA2/GPR109A; [2])	EC50 (HCA2/GPR109A; [3])	other results
CC1=C(C(=O)Nc2ccc(Cl)cc2)C(c2cccs2)C2=C(CCCC2=O)N1 (centres unmarked) [1-5, N-(4-Chlorophenyl)-2-methyl-5-oxo-4-(thiophen-2-yl)-1,4,5,6,7,8-hexahydroquinoline-3-carboxamide]	45 ± 9%						
CC1=C(C(=O)Nc2ccc(Cl)cc2Cl)C(c2cccs2)C2=C(CCCC2=O)N1 (centres unmarked) [1-6, N-(2,4-Dichlorophenyl)-2-methyl-5-oxo-4-(thiophen-2-yl)-1,4,5,6,7,8-hexahydroquinoline-3-carboxamide]		82%	1400 ± 170 nM				
CC1=C(C(=O)Nc2ccccn2)C(c2cccs2)C2=C(CCCC2=O)N1 (centres unmarked) [1-7, 2-Methyl-5-oxo-N-(pyridin-2-yl)-4-(thiophen-2-yl)-1,4,5,6,7,8-hexahydroquinoline-3-carboxamide]				49 ± 8%			activity towards FFA3/GPR41 (in words) (FFA3/GPR41): lost; activity towards FFA2/GPR43 (in words) (FFA2/GPR43): showed activity
CC1=C(C(=O)N2CCOCC2)C(c2cccs2)C2=C(CCCC2=O)N1 (centres unmarked) [1-8, 2-Methyl-3-(morpholine-4-carbonyl)-4-(thiophen-2-yl)-4,6,7,8-tetrahydro-1H-quinolin-5-one]	28 ± 2%						activity towards HCA2/GPR109A (in words) (HCA2/GPR109A): lacked activity; activity towards FFA2/GPR43 (in words) (FFA2/GPR43): lacked activity
CCOC(=O)COC(=O)C1=C(C)NC2=C(C(=O)CCC2)C1c1cccs1 (centres unmarked) [1-9]		91%	1900 ± 400 nM	40 ± 2%			El.ox. pot. (first, lower potential) [1]: 1.18 V
CCOC(=O)C(OC(=O)C1=C(C)NC2=C(C(=O)CCC2)C1c1cccs1)c1ccccc1 (centres unmarked) [1-10, (2-Ethoxy-2-oxo-1-phenylethyl)2-methyl-5-oxo-4-(2-thienyl)-4,6,7,8-tetrahydro-1H-quinoline-3-carboxylate]	49 ± 15%			31 ± 4%			inhibition at 50 µM (HCA2/GPR109A; HCA2): 60 ± 5%; El.ox. pot. (first, lower potential) [1]: 1.18 V
CCCNCC1=C(C(=O)OCC)C(c2ccc(-c3ccccc3)cc2)C2=C(CC(C)(C)CC2=O)N1 (centres unmarked) [1-11]	51 ± 6%			55 ± 6%			inhibition at 50 µM (HCA2/GPR109A; HCA2): 52 ± 5%
CCN1CC2=C(C1=O)C(c1ccc(-c3ccccc3)cc1)C1=C(CC(C)(C)CC1=O)N2 (centres unmarked) [1-12]	16 ± 8%			21 ± 4%			activity towards FFA3/GPR41 (in words) (FFA3/GPR41): low activity; inhibition at 50 µM (HCA2/GPR109A; HCA2): 16 ± 4%; activity towards HCA2/GPR109A (in words) (HCA2/GPR109A): low activity; activity towards FFA2/GPR43 (in words) (FFA2/GPR43): low activity
CC(=O)OCCN1C2=C(C(=O)CC(C)(C)C2)C(c2ccccc2)C2=C1CC(C)(C)CC2=O [1-13]	30 ± 9%			32 ± 7%			inhibition at 50 µM (HCA2/GPR109A; HCA2): 26 ± 8%
CCOC(=O)C1=C(C(=O)O)NC2=C(C(=O)CC(C)(C)C2)C1c1ccc(-c2ccccc2)cc1 (centres unmarked) [1-14]							activity towards FFA3/GPR41 (in words) (FFA3/GPR41): completely lacked activity; activity towards HCA2/GPR109A (in words) (HCA2/GPR109A): completely lacked activity; activity towards FFA2/GPR43 (in words) (FFA2/GPR43): completely lacked activity
Cc1cc(=O)oc2[nH]c(=S)[nH]c(=O)c12 [2-1]		89%	4800 ± 360 nM		96%	7100 ± 1310 nM	Emax (FFA2/GPR43): 87%; EC50 (FFA2/GPR43): 19000 ± 6800 nM
CCc1cc(=O)oc2[nH]c(=S)[nH]c(=O)c12 [2-2]			370 ± 80 nM				EC50 (HCA2/GPR109A): 490 ± 60 nM; Emax (HCA2/GPR109A; HCA2, read-out: HCA2/GPR109A Emax, maximal inhibition of forskolin-stimulated cAMP): 99%; Emax (FFA2/GPR43): 91%; EC50 (FFA2/GPR43): 920 ± 40 nM
CCCc1cc(=O)oc2[nH]c(=S)[nH]c(=O)c12 [2-3, 5-Propyl-2-thioxo-2,3-dihydro-1H-pyrano[2,3-d]pyrimidine-4,7-dionee]	38 ± 2%			29 ± 3%	86%	870 ± 110 nM	
CCCCc1cc(=O)oc2[nH]c(=S)[nH]c(=O)c12 [2-4, 5-Butyl-2-thioxo-2,3-dihydro-1H-pyrano[2,3-d]pyrimidine-4,7-dione]		95%	190 ± 30 nM		97%	550 ± 40 nM	Emax (FFA2/GPR43): 93%; EC50 (FFA2/GPR43): 740 ± 80 nM
CCCCc1cc(=O)oc2[nH]c(=O)[nH]c(=O)c12 [2-5]	28 ± 4%				93%	51 ± 7 nM	El.ox. pot. (single value) [1]: 1.94 V
O=c1cc(CCCCCl)c2c(=O)[nH]c(=S)[nH]c2o1 [2-6, 5-(4-Chlorobutyl)-2-thioxo-2,3-dihydro-1H-pyrano[2,3-d]pyrimidine-4,7-dione]		89%	340 ± 50 nM		94%	350 ± 20 nM	Emax (FFA2/GPR43): 83%; EC50 (FFA2/GPR43): 2500 ± 400 nM
CCCCc1cc(=O)oc2[nH]c(SCC(=O)OCC)nc(=O)c12 [3-1, Ethyl 5-butyl-4,7-dioxo-1,7-dihydro-4H-(pyrano[2,3-d]pyrimidin-2-ylsulfanyl)acetate]		95%	1600 ± 500 nM	65 ± 1%	93%	75000 ± 11000 nM	El.ox. pot. (single value) [1]: 1.97 V
CCOC(=O)CSc1nc(=O)c2c(CCCCCl)cc(=O)oc2[nH]1 [3-2]		91%	1700 ± 200 nM	64 ± 2%	89%	43000 ± 8000 nM	
NC(=O)CSc1nc(=O)c2c(CCCCCl)cc(=O)oc2[nH]1 [3-5, 2-[5-(4-Chlorobutyl)-4,7-dioxo-1,7-dihydro-4H-pyrano[2,3-d]pyrimidin-2-ylsulfanyl]-acetamide]	20 ± 4%			42 ± 2%	87%	62000 ± 10000 nM	El.ox. pot. (single value) [1]: 1.93 V
O=C(CSc1nc(=O)c2c(CCCCCl)cc(=O)oc2[nH]1)Nc1ccccc1C(=O)O [3-7, 2-2-[5-(4-Chlorobutyl)-4,7-dioxo-1,7-dihydro-4H-pyrano[2,3-d]pyrimidin-2-ylsulfanyl]-acetamino-benzoic acid]		87%	4600 ± 600 nM	52 ± 10%			inhibition at 50 µM (HCA2/GPR109A; HCA2): 30 ± 6%
